Consider three molecules from publication PMC4552636, “Pharmacokinetics, Tissue Distribution, and Anti-Lipogenic/Adipogenic Effects of Allyl-Isothiocyanate Metabolites” (PLoS ONE, 2015).

One series concerns mTORC1. Nature of the series: mTORC1 activity (S6K1 and 4EBP1 phosphorylation) during 3T3-L1 adipocyte differentiation, western blot. Type of series: cell-based. How it is done:
(§1) 3T3-L1 pre-adipocyte cells were purchased from the ATCC (Manassas, VA, USA). Cells were maintained in DMEM supplemented with 10% calf serum (CS), 100 U/mL penicillin and 100 μg/mL streptomycin at 37°C in a 5% CO2 incubator. The cells were seeded onto a 6-well plate at a density of 4 × 10^5 cells per well, and cell differentiation was induced. In brief, beginning at 2 days post-confluence (day 0), cells were incubated for 2 days in DMEM containing 0.5 mM 3-isobutyl-1-methylxanthine (IBMX), 1 μM dexamethasone, 1 μg/mL of insulin, and 10% fetal bovine serum (FBS). After induction, the medium was replaced with DMEM containing 10% FBS and 1 μg/mL of insulin, and the cells were incubated for 2 more days, after which the cells were maintained in DMEM containing 10% FBS until they reached maturity. From days 0 to 2, the cells were exposed to the AITC metabolites.
(§2) 3T3-L1 adipocytes were scraped into a lysis buffer containing 40 mM HEPES (pH 7.4), 120 mM NaCl, 1 mM EDTA, 50 mM NaF, 1.5 mM Na3VO4, 10 mM β–glycerophosphate, and 1% Triton X-100, supplemented with EDTA-free phosphatase and a protease inhibitor cocktail (#78441; Thermo Scientific, Waltham, MA, USA). Next, the cells were lysed by sonication twice for 15 sec on ice using a sonicator (Misonix, Farmingdale, NY, USA). […]

On the set-up of series [1]: method as in PMID 3961819. Conditions: cellular medium; cited from earlier work.
Another series relates to PPAR-γ, C/EBPα, and FAS. Nature of the series: Western blotting of adipogenesis proteins in 3T3-L1 cells. The class given is cell-based. How it is done: as §1, §2
Another series deals with 3T3-L1 preadipocytes. In words: MDI-induced adipocyte differentiation of 3T3-L1 preadipocytes, Oil Red O staining. The class given is cell-based. Conditions: treated days 0 to 2, stained after 8 days. The procedure: as §1
(§3) Oil Red O staining was performed on day 8. Prior to quantification, the cells were fixed in 10% neutral formalin for 1 h at room temperature, washed with PBS, and stained for 1 h with 0.5% Oil Red O in 60% isopropanol. After staining, the cells were washed with distilled water and observed under a fluorescence microscope. […] The optical density was measured at a wavelength of 490 nm using microplate reader (Tecan Infinite 200 PRO, Männedorf, Switzerland).

A further series concerns Hepa 1–6 cells. Nature of the series: Oleic acid-induced lipid accumulation in hepatocytes, Oil Red O. Type of series: cell-based, mouse. Conditions: hepatocytes (Hepa 1–6), 100 μM oleic acid, 24h. The procedure: HepG2 (human hepatoma cell line) and Hepa 1–6 (mouse hepatoma cell line) cells were obtained from ATCC (Manassas, VA, USA) and grown in high glucose DMEM supplemented with 10% FBS, 100 U/mL penicillin, and 100 μg/mL streptomycin. For examination of lipid accumulation in hepatocytes, the cells were treated with AITC metabolites in presence of 100 μM oleic acid for 24h.
as §3
Fig 6 Inhibitory effects of GSH-AITC and NAC-AITC on oleic acid-induced lipid accumulation. […] The intracellular triglyceride levels were indexed by quantifying the Oil Red O extracted from the cells by spectroscopy performed at an […] of 490 nm (B). The SCD1, FAS, and AMPK levels in cell lysates were detected by western blot analysis. To compare and quantify levels of proteins, the density of each band was measured using ImageJ software with β–actin as an internal reference (C). […]

Series [2] can be described thus: Plasma pharmacokinetics of AITC metabolites after oral administration of AITC (HPLC). Type of series: in vivo. Conditions: male, Sprague-Dawley, rat plasma, metabolite after oral AITC 25 mg/kg, n = 5; for Cmax: read-out: Cmax (maximum plasma concentration); for half-life: read-out: T1/2 (elimination half-life) (converted); for AUC(0-t): unit printed in text b47 only, read-out: AUC (0-8h). How it is done: Methanol (700 μL) was added to 300 μL of serum and the mixture was mixed by vortexing for 5 min. […] The internal standards (synthesized metabolites) were added to the plasma samples for validation.
(§4) Non-compartmental (mode-independent) nutrikinetic parameters were derived using PK Solutions software version 2.0 (Summit Research Services, Montrose, CO, USA). The maximum plasma concentration (Cmax), time to maximum plasma concentration (Tmax), and the elimination half-life (t1/2) were estimated from the plasma concentration-time curve. The area under the curve (AUC) for the plasma concentration over time was calculated using the trapezoidal rule.
A validated analytical method was employed to study the pharmacokinetic profiles of AITC metabolites after oral administration of 25 mg/kg AITC dose to rats. The mean plasma concentration-time curves of the AITC metabolites and the corresponding pharmacokinetic parameters are shown in Fig 2B and 2C . The pharmacokinetic analysis was performed with PK solution 2.0 software, using a non-compartmental model for data analysis. After oral administration of AITC, GSH-AITC and NAC-AITC were detected in the plasma. The Tmax values for GSH-AITC and NAC-AITC were similar at 0.5h. […] The areas under the curve of the concentration-time profile (AUC0-8h) of GSH-AITC and NAC-AITC were 1.3 and 12.33 μg·h/mL, respectively.

The nature of series [3]: Urine concentration and pharmacokinetics of AITC metabolites after oral AITC (HPLC). Conditions: rat urine; for Detection in urine samples: HPLC. Type of series: in vivo. The procedure:
as §4
In addition to our evaluations of plasma levels, we also determined the concentration of AITC metabolites in urine using HPLC. […] NAC-AITC was mostly excreted within 8 h (Fig 3C).

The nature of series [4]: Tissue distribution of AITC metabolites after oral AITC (HPLC). Conditions: rat liver, kidney, spleen, heart, lung; 0.5-8 h after oral AITC.
Protocol: (§5) Male Sprague-Dawley rats with an average weight of approximately 250 g were purchased from Orient Bio Inc. (Seoul, South Korea) and acclimatized to the laboratory conditions (12:12 h light-dark cycle, temperature of 24°C, and humidity of 55%) for 1 week. Animals were provided the American Institute of Nutrition-93 (AIN-93) diet and water ad libitum during acclimation. On the dosing day, rats were fasted for 6 h and then administered AITC (25 mg/kg of body weight) as a suspension (1 mL) in polyethylene glycol using an oral zonde needle. After a single-dose oral administration of AITC, rats were sacrificed under anesthesia (80 mg/kg ketamine + 8 mg/kg xylazine) at different time points after dosing. Blood samples were collected from the abdominal aorta in heparinized syringes. Samples were immediately centrifuged at 3,000 × g for 10 min and the resulting plasma samples were kept frozen at -80°C until analysis. The liver, heart, spleen, kidney, and lung were rapidly collected from each animal at different time points, individually wrapped in aluminum foil, snap-frozen in liquid nitrogen, and stored frozen at -80°C until use.
(§6) Dissected tissue was thawed, rinsed with ice-cold saline, blotted dry, and weighed. Each tissue sample (100 mg) was homogenized in 100 μL phosphate-buffered saline (PBS) using homogenizer (MP Fastprep instrument, MP Biomedical, Solon, OH, USA). The homogenates were transferred into clean tubes and mixed with 700 μL of methanol by vortexing for 5 min. Homogenates were centrifuged at 15,700 × g for 15 min at 4°C, and the supernatants were collected and evaporated to dryness at room temperature under a stream of nitrogen gas. The residue was diluted with 100 μL 70% methanol.
(§7) HPLC analysis was performed using a Jasco HPLC system equipped with a Jasco UV-2089 plus quaternary gradient pump, a Jasco MD-2010 plus multiple-wave-length detector, and Borwin chromatography software, version 1.5 (Jasco Inc., Easton, MD, USA). Separation was achieved using an XTerra RP18 column (4.6 × 250mm, 5 μM, Waters, Milford, MA, USA). […]
The conditions of series [5]: rat, in vivo, po.
Protocol: as §5, §6, §7
Setting [6] is: male, Sprague-Dawley, 25 mg/kg, n = 5.

Regarding `C=CCNC(=S)SC[C@H](NC(=O)CC[C@H](N)C(=O)O)C(=O)NCC(=O)O` [GSH-AITC, S-(N-allylthiocarbamoyl)-L-glutathione], the “S6K1 phosphorylation on Thr389” value in the series with mTORC1 is listed as “reduced”. In series [1], the “Fraction converted to free AITC” value is recorded as 9–15%. The “Levels of PPAR-γ, C/EBPα, and FAS” value with PPAR-γ, C/EBPα, and FAS was “reduced”. For the same molecule, the “Differentiation of 3T3-L1 preadipocytes (Oil Red O)” value with 3T3-L1 preadipocytes was “inhibited differentiation of preadipocytes”. The “Oleic acid-induced lipid accumulation” value with Hepa 1–6 cells is “suppressed”. In [2], the Tmax turned out to be 0.5 h, the Cmax is 1470 ng/mL, the half-life was 0.92 h and the AUC(0-t) is 1300 ng·h/mL. Besides, in series [3], the “Detection in urine samples” value was “not detected”. Moreover, the “Tissue deposition (by tissue weight)” value in series [4] was “observed in the liver, followed by the kidney, spleen, heart, and lung”.
On to `C=CCN=C=S` [AITC, Allyl-isothiocyanate], for which the “Detection of parent molecule in plasma and tissues” value in series [5] was “not detected”.
`C=CCNC(=S)SC[C@H](NC(C)=O)C(=O)O` [NAC-AITC, N-acetyl-S-(N-allylthiocarbamoyl)- l-cysteine]: in the series with mTORC1, the “S6K1 phosphorylation on Thr389” value is given as “reduced”. In the series on PPAR-γ, C/EBPα, and FAS, the “Levels of PPAR-γ, C/EBPα, and FAS” value is given as “reduced”. Further, the “Differentiation of 3T3-L1 preadipocytes (Oil Red O)” value in the series on 3T3-L1 preadipocytes is recorded as “inhibited differentiation of preadipocytes”. Also, the “Oleic acid-induced lipid accumulation” value with Hepa 1–6 cells is recorded as “suppressed”. In addition, in series [2], the Tmax was 0.5 h, the Cmax worked out at 14000 ng/mL, the half-life was 2.65 h and the AUC(0-t) was 12300 ng·h/mL. In series [3] (setting [6]), the Cmax amounted to 2260 ng/mL and the Tmax was 2.66 h. Further, in series [3] (male, Sprague-Dawley, 25 mg/kg, n = 5, read-out: AUC (0-8h) in urine), the AUC(0-t) is 8110 ng·h/mL. In [3] (male, Sprague-Dawley, 25 mg/kg, n = 5, read-out: T1/2 in urine (converted)), the half-life is 1.44 h. Besides, in [3], the “Time within which mostly excreted in urine” value was at most 8 h and the “Detection in urine samples” value is recorded as “successfully quantified”. Also, the “Tissue deposition (by tissue weight)” value in [4] is reported as “observed in the kidney”.
